In ChEMBL document CHEMBL6127056, “Novel mechanistic insights - A brand new Era for anti-HBV drugs” (Eur J Med Chem, 2024):
One block for each molecule: values may come before it.

What was measured:
[1] = system: Hepatitis B virus; assay: Antiviral activity against HBV infected in human HepAD38 cells assessed as inhibition of viral replication; assay type: functional, organism-based
[2] = system: Hepatitis B virus; assay: Antiviral activity against HBV infected in human HepDES19 cells assessed as inhibition of extracellular HBV DNA by qPCR analysis; assay type: functional, organism-based
[3] = target: Lysine-specific demethylase 5B (Homo sapiens, UniProt Q9UGL1); assay: Inhibition of KDM5B (unknown origin)
[4] = target: SRSF protein kinase 1 (Homo sapiens, UniProt Q96SB4); assay: Inhibition of SRPK-1 (unknown origin)
[5] = Inhibition of HBV RNA polymerase; design: species or system Hepatitis B virus
[6] = system: Hepatitis B virus; assay: Antiviral activity against HBV infected in human Primary hepatocyte assessed as reduction in HBV replication; assay type: functional, organism-based
[7] = system: Hepatitis B virus; assay: Antiviral activity against HBV infected in human HepG2.2.15 cells assessed as reduction in viral DNA levels incubated for 6 days by PCR analysis; assay type: functional, organism-based; details: HepG2.2.15, 144 h
[8] = system: Hepatitis B virus; assay: Antiviral activity against Hepatitis B virus ayw1 infected in human HepG2 2.2.15 cells assessed as reduction in viral DNA replication incubated for 6 days by qPCR analysis; assay type: functional, organism-based; details: ayw1, HepG2 2.2.15, 144 h
[9] = target: T1, NAD-dependent protein deacetylase sirtuin-2 (Homo sapiens, UniProt Q8IXJ6); assay: Inhibition of SIRT2 (unknown origin)
T1 sequence (Q8IXJ6 whole entry): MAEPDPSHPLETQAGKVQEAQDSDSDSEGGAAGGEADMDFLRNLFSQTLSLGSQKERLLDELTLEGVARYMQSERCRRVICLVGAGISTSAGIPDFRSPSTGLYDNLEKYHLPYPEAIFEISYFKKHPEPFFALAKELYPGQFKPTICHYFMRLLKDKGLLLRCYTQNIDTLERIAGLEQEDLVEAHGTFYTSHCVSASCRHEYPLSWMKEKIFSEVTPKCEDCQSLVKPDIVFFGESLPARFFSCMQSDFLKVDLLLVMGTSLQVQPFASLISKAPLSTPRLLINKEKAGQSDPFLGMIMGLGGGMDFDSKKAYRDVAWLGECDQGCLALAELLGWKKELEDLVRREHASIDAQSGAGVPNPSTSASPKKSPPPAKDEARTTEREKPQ

[10] = system: HepG2 2.2.15; assay: Cytotoxicity against human HepG2.2.15 cells assessed as reduction in cell viability by CellTiter-Blue reagent based analysis; assay type: functional
[11] = system: Hepatitis B virus; assay: Antiviral activity against Hepatitis B virus assessed as inhibition of HBV DNA replication; assay type: functional, organism-based
[12] = target: Triosephosphate isomerase (Homo sapiens, UniProt P60174); assay: Inhibition of TPI1 (unknown origin)
[13] = system: Hepatitis B virus; assay: Antiviral activity against HBV infected in human HepG2.117 cells assessed as reduction in intracellular DNA level by RT-qPCR analysis; assay type: functional, organism-based
[14] = system: Hepatitis B virus; assay: Antiviral activity against HBV infected in human HepG2.2.15 cells; assay type: functional, organism-based
[15] = target: Human immunodeficiency virus type 1 reverse transcriptase (Human immunodeficiency virus 1, UniProt Q72547); assay: Inhibition of HIV-1 reverse transcriptase

Sequence of Triosephosphate isomerase (P60174 whole entry): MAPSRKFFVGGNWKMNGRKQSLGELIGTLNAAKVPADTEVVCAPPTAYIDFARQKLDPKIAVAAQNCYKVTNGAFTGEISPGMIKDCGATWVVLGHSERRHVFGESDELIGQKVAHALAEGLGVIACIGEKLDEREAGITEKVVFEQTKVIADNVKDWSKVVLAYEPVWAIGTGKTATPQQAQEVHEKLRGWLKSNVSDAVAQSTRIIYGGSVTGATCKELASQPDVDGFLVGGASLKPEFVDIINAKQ
Sequence of SRSF protein kinase 1 (Q96SB4 whole entry): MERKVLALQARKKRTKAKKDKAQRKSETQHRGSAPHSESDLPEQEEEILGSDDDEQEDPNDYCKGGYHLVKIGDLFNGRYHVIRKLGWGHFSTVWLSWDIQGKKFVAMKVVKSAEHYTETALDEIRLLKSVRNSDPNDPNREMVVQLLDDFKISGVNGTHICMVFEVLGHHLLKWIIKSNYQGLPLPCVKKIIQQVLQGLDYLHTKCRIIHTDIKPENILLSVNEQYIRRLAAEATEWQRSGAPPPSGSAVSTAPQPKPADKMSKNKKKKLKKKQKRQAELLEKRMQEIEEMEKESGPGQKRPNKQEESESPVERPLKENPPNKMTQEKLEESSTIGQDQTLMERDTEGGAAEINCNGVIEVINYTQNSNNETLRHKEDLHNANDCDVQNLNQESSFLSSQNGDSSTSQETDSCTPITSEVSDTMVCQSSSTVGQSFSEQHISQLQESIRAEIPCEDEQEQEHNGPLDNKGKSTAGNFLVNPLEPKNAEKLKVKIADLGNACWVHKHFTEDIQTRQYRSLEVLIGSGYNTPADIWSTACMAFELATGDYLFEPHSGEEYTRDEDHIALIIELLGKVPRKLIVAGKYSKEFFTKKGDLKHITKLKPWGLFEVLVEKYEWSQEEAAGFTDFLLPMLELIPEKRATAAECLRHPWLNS
Sequence of Lysine-specific demethylase 5B (Q9UGL1 whole entry): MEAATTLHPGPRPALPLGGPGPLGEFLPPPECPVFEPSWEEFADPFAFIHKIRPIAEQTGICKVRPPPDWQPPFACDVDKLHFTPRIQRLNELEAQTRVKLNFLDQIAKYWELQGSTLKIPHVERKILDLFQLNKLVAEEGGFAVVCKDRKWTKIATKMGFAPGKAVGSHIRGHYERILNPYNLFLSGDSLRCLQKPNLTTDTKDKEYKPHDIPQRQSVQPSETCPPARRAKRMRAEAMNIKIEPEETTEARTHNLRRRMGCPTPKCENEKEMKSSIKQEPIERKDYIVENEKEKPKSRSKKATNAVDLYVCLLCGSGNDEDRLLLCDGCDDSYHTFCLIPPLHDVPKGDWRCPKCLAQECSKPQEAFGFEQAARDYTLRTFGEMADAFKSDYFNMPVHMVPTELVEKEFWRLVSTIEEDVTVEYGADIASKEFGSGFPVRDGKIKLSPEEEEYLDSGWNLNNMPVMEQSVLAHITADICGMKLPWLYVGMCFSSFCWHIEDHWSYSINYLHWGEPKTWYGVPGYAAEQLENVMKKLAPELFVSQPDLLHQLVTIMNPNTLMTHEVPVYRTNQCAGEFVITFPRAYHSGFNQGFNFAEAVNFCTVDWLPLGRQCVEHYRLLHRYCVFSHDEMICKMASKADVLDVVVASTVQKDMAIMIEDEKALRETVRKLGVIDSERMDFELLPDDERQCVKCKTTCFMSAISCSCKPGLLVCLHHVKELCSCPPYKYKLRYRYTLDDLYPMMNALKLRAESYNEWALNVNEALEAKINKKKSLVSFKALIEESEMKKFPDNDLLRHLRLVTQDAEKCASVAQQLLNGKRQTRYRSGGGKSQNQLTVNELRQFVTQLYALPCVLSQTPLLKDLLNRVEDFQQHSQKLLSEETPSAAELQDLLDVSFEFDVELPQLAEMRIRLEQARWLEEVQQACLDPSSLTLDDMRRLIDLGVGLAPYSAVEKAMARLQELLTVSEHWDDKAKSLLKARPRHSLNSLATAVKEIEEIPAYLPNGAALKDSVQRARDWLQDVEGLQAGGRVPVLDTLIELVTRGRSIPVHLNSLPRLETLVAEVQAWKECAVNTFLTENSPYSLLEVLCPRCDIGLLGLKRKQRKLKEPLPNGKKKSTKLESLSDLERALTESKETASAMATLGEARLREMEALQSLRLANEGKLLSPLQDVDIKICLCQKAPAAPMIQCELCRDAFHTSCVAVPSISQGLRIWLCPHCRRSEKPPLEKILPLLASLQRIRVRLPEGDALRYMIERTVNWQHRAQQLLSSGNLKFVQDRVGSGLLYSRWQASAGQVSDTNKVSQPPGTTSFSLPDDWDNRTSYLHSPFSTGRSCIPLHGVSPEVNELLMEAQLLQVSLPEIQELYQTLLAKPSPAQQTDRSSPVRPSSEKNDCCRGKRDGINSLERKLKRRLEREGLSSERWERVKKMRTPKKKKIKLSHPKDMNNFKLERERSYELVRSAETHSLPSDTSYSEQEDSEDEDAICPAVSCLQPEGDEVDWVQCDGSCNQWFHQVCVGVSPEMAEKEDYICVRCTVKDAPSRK

EC50 [1]: 15600 nM
SMILES: Cc1cc(/N=N/c2ccc(S(=O)(=O)Nc3ccccn3)cc2)c(N)cc1O

EC50 [2]: 100 nM
SMILES: CCOC(=O)C1=C(CN2CCOCC2)NC(c2nccs2)=NC1c1ccc(F)cc1Br (stereo not drawn)

EC50 [1]: 34 nM
SMILES: CCOC(=O)c1ccnc(CNCC(=O)N(CC)CCN(C)C)c1

IC50 [5]: 1890 nM
SMILES: O=C(Nc1ccc2c(=O)c3cccc(F)c3oc2c1)c1ccccc1

EC50 [2]: > 10000 nM
SMILES: CCOC(=O)C1=C(CN2CCN(C(C(=O)O)c3ccoc3)CC2)NC(c2nccs2)=NC1c1ccc(F)cc1Br (stereo not drawn)

IC50 [9]: < 620 nM
SMILES: Cc1cn(-c2ccc3c(c2)CN(c2ncc(Cc4ccc(-n5cccn5)cc4)s2)CC3)c(C)n1

EC50 [11]: > 10000 nM
SMILES: Cc1ccc2[nH]c(CCNc3nccc(-c4ccccn4)n3)nc2c1C

More lines, now with the values behind:

SMILES: CCN(CCN(C)C)C(=O)CNCc1cc(C(=O)O)ccn1
IC50 [3]: 380 nM

SMILES: CCc1cc2c(cc1-c1cccc(S(=O)(=O)F)c1)C(C)(C)c1[nH]c3cc(C#N)ccc3c1C2=O
IC50 [4]: 9400 nM

SMILES: Cn1cnc(COC(=O)N[C@H]2CCc3c(C(=O)Nc4ccc(F)c(Cl)c4)ccc(F)c32)n1
EC50 [6]: 630 nM

SMILES: Cc1cc(N)c(S(N)(=O)=O)cc1C(=O)Nc1cc(F)c(F)c(F)c1
EC50 [7]: 60 nM

SMILES: CCOC(=O)C1=C(CN2CCN(C(C(=O)O)c3cccc([N+](=O)[O-])c3)CC2)NC(c2nccs2)=NC1c1ccc(F)cc1Br (stereo not drawn)
EC50 [2]: 24 nM

SMILES: CNC(=O)C1(NC(=O)C(=O)c2c(C)c(C(=O)Nc3ccc(F)c(F)c3)n3c2CCC3)CC(F)(F)C1
EC50 [6]: 80 nM

SMILES: COC(=O)C1=C(C)NC(c2ncc(F)cc2F)=N[C@H]1c1ccc(F)cc1Cl
EC50 [8]: 23 nM

SMILES: N#Cc1ccc(Cn2nc(-c3ccc(C(F)(F)F)nc3F)c3ccccc3c2=O)cc1
IC50 [10]: 200 nM

SMILES: CCn1ccnc1-c1c(-c2ccccc2)ncn1CCCc1cccnc1
EC50 [11]: 10000 nM

SMILES: CCCCCCCc1cc(OC(=O)c2c(CCCCCCC)cc(O)cc2O[C@H]2O[C@@H](CO)[C@@H](O)[C@@H](O)[C@@H]2O)cc(O)c1C(=O)O
IC50 [12]: 2200 nM

SMILES: CCCCCCCCCc1cc(OC(=O)c2c(CCCCCCCCC)cc(O)cc2O[C@@H]2O[C@H](CO)[C@@H](O)[C@H](O)[C@H]2O)cc(O)c1C(=O)O
IC50 [12]: 1100 nM

SMILES: CC(C)OC(=O)[C@H](C)NP(=O)(OC[C@@]1(F)CO[C@@H](n2cnc3c(N)ncnc32)[C@@H]1CO)Oc1ccccc1 (stereo partly drawn)
EC50 [13]: 80 nM

SMILES: Nc1ncnc2c1ncn2[C@@H]1OC[C@](F)(CO)[C@H]1CO
EC50 [13]: > 10000 nM

SMILES: CCOCCOC(=O)C1=C(C)NC(c2ncc(F)cc2F)=NC1c1ccc(F)cc1C (stereo not drawn)
EC50 [14]: 6240 nM

SMILES: O=C(Nc1ccc(F)c(C(F)F)c1)C1c2ccccc2NCC1CN1CCC(F)(F)CC1 (stereo not drawn)
EC50 [7]: 100 nM

SMILES: Nc1ncnc2c1ncn2[C@@H]1OC[C@](F)(COP(=O)(O)OP(=O)(O)OP(=O)(O)O)[C@H]1CO
IC50 [15]: 320 nM
